Test results taken from patent US8207167B2, “Aryl-phenyl-sulfonamide-phenylene compounds and their use” (PIMCO 2664 Limited, priority 2008, dated 2012).
≈ marks a conversion by molar mass, not a printed value.

Columns and labels:
[1] = Human liver microsomal stability assay; assay type: in vitro ADME; details: pooled human liver microsomes 0.5 mg/mL, test compound 3 μM, 45 minute incubation, NADPH; for half-life at 3 μM: both sexes, pH 7.4
Method: (§1) Initial screening of candidate compounds was performed using in vitro assays to determine potency, metabolic stability and solubility in biologically relevant fluids. Potency was assessed using a viability assay based on the survival of the J774 macrophage cell line. Macrophages are closely related to osteoclasts and have been used previously as a model system for osteoclast survival (see, e.g., Luckman et al., 1998). Like osteoclasts, J774 macrophages are dependent on continued NFκB activation for survival, thereby providing a valuable screen for compounds with anti-inflammatory activity. Metabolic stability was measured by determining the rate of disappearance of compound in the presence of human liver microsomal preparations, as quantified by LC-MS/MS. Solubility was measured by equilibration of the compound in fasted state simulated intestinal fluid (FaSSIF) and quantified by HPLC.
Metabolic stability of APSAP derivatives was measured by determination of the rate of compound disappearance when incubated in the presence of human liver microsomes. Liver microsomes are prepared from the endoplasmic reticulum of hepatocytes and are the primary source of the most important enzymes (cytochrome P450) involved in drug metabolism. Study of drug stability in the presence of liver microsomes is accepted as a valuable model permitting rapid prediction of in vivo drug stability.
Human liver microsomes were obtained from a commercial source. Test compounds (3 μM) were incubated with pooled liver microsomes (male and female). Samples were incubated for a 45 minute period and removed at 5 time points and test compounds were analysed by LC-MS/MS.
The final incubation volume was 25 μL. A control incubation was included for each compound tested, where 0.1 M phosphate buffer pH 7.4 was added instead of NADPH. The control compounds testosterone and 7-hydroxycoumarin were included in each experiment and all incubations were performed singularly for each compound.
Each compound was incubated for 0, 5, 15, 30, and 45 minutes. The control (minus NADPH) was incubated for 45 minutes only. The reactions were stopped by the addition of 50 μL methanol containing internal standard at the appropriate time points. The incubation plates were centrifuged at 2500 rpm for 20 minutes at 4° C. to precipitate the protein.
Following protein precipitation, the sample supernatants were combined in cassettes of up to 4 compounds and analysed using standard LC-MS/MS conditions.
From a plot of the natural logarithm of the peak area ratio (i.e., the ratio of compound peak area:internal standard peak area) against time, the gradient of the line was determined. Subsequently, half-life and intrinsic clearance were calculated using the equations below: Eliminated rate constant(k)=(−gradient). […] Intrinsic Clearance(CLint)([…])=(V×0.693)/t1/2. wherein V=Incubation volume(μL/mg microsomal protein). Pharmacokinetics Studies

[2] = Thermodynamic aqueous solubility in fasted state simulated intestinal fluid (FaSSIF); assay type: physicochemical; details: 25° C., 24 hours equilibration, HPLC; for solubility at 24 h: pH 6.5, thermodynamic from solid
Method: as §1
Thermodynamic aqueous solubility was measured by equilibration of a number of APSAP compounds, in the solid state, with fasted state simulated intestinal fluid (FaSSIF) and quantified by HPLC. Measurement of solubility in FaSSIF provides a valuable model for the prediction of drug dissolution following oral administration.
Preparation of blank FaSSIF: NaOH pellets (174 mg), NaH2PO4.2H2O (2.235 g), and NaCl (3.093 g) were dissolved in 500 mL of water. The pH was adjusted to 6.5 using 1 M NaOH solution.
Preparation of FaSSIF: Sodium taurocholate (165 mg) was dissolved in 25 mL blank FaSSIF. 0.6 mL of a solution containing 100 mg/mL lecithin in methylene chloride was added. The methylene chloride was eliminated under vacuum at about 40° C. The vacuum was drawn for 15 minutes at 250 mbar, followed by 15 minutes at 100 mbar. […] After cooling to room temperature, the solution was then adjusted to 100 mL with blank FaSSIF.
The suspension was equilibrated at 25° C. for 24 hours, and then the pH was measured. The suspension was then filtered through a glass fibre C filter into a 96-well plate. The filtrate was then diluted by a factor of 100. Quantification was made by HPLC with reference to a standard solution of compound at approximately 0.1 mg/mL in DMSO. Different volumes of the standard, diluted and undiluted sample solutions were injected. The solubility was calculated using the peak areas determined by integration of the peak found at the same retention time as the principal peak in the standard injection. Analysis was performed on an Agilent HP1100 series system equipped with a diode array detector and using ChemStation software vB.02.01-SR1.

[3] = test system: J774 macrophages; experiment: Alamar Blue macrophage J774 viability assay; assay type: cell-based; details: 72 hours culture with compound, Alamar Blue read-out
Method: as §1
In vitro potency as anti-inflammatory agents was determined for a number of APSAP compounds by incubation with J774 macrophages and subsequent determination of cell viability.
J774 cells were plated at 10^4 cells per well in 100 μL αMEM (α Modified Eagle Medium) in 96-well plates and grown overnight. The next day, test compounds were added to the cultures, and cultures were continued for another 72 hours. At the end of the culture period, cell survival was determined using an Alamar Blue assay as previously described (see, e.g., Nociari et al., 1998).
Alamar Blue is an oxidation-reduction sensitive indicator. The dye itself is in the oxidised state, which is blue and non-fluorescent. The dye can accept electrons from reducing species, such as NADPH and FADH, to form a reduced dye species, which is red and fluorescent. Thus the transformation from oxidised form to reduced form can be measured by fluorimetric or colourimetric means. For fluorescence measurements, 530-560 nm excitation and 590 nm emission wavelengths are typically used. For colourimetric measurements, absorbance at 570 nm (reduced form) and 600 nm (oxidised form) is typically measured. A simple calculation is performed to determine the relative quantities of the two species.
A high ratio of the reducing species, NADPH and FADH, to the corresponding oxidised species, NADP and FAD, is an indicator that cells are proliferating and viable. A low ratio indicates cells that are quiescent or non-viable.
Briefly, Alamar Blue (Biosource International) was added undiluted to each well (1:10 v/v, 10 μL). The plate was incubated at 37° C. for 3-4 hours and the fluorescence was measured at 590 nm, with a 25 nm bandwidth. A high reading indicated cells with normal viability, and a low reading indicated cells that have been damaged and are no longer proliferating normally. The controls gave a high fluorescence reading, indicating a high number of live, healthy cells. A potent test compound gave a low fluorescence reading.
The average results for each test compound (n=5) were expressed as a percent (%) of the average control value.
Addition of Compounds. All of the compounds studied were made up as 100 mM solutions in DMSO. These stock solutions were then diluted 1000-10000× in culture medium (αMEM). From these 100 μM or 10 μM solutions, convenient quantities (3-33 μL) were added directly to the wells so as to give the desired final compound concentration.

[4] = fasted state simulated intestinal fluid (FaSSIF)

Compound	half-life at 3 μM [1] [min]	solubility at 24 h [2, 4] [µg/mL]	IC50 ([3]; Mus musculus) [nM]	also measured
CN(C)C(=O)c1cccc(NS(=O)(=O)c2ccc(-c3ccc(Cl)cc3Cl)cc2)c1 [ABD730, 3-(2′,4′-Dichlorobiphenyl-4-ylsulfonamido)-N,N-dimethylbenzamide]	15	20 (≈ 44.5 µM)	–	–
O=S(=O)(Nc1cccc(CCO)c1)c1ccc(-c2ccc(Cl)cc2Cl)cc1 [ABD625, reference compound]	–	–	–	T1/2 [1]: 13 min
O=S(=O)(Nc1ccc(CO)c(CO)c1)c1ccc(-c2ccc(F)cc2F)cc1 [ABD565, reference compound]	–	–	–	Solubility [2]: 30 µg/mL (≈ 74 µM)
Cc1c(CO)cccc1NS(=O)(=O)c1ccc(-c2ccc(F)cc2F)cc1 [ABD527, reference compound]	–	–	–	Solubility [2]: 40 µg/mL (≈ 103 µM)
O=S(=O)(Nc1cccc(C(CO)N2CCOCC2)c1)c1ccc(-c2ccc(F)cc2F)cc1 (stereo not shown) [ABD792, 2′,4′-Difluoro-N-(3-(2-hydroxy-1-morpholinoethyl)phenyl)biphenyl-4-sulfonamide]	2	4400 (≈ 9270 µM)	> 30000	–
NS(=O)(=O)c1cccc(NS(=O)(=O)c2ccc(-c3ccc(Cl)cc3Cl)cc2)c1 [ABD751, 2′,4′-Dichloro-N-(3-sulfamoylphenyl)biphenyl-4-sulfonamide]	46	40 (≈ 87.5 µM)	870	–
N[C@H](CO)c1cccc(NS(=O)(=O)c2ccc(-c3ccc(F)cc3F)cc2)c1 [ABD855, (S)—N-(3-(1-Amino-2-hydroxyethyl)phenyl)-2′,4′-difluorobiphenyl-4-sulfonamide]	289	4100 (≈ 10100 µM)	860	–
CN[C@@H](CO)c1cccc(NS(=O)(=O)c2ccc(-c3ccc(F)cc3F)cc2)c1 [ABD810, (R)-2′,4′-Difluoro-N-(3-(2-hydroxy-1-(methylamino)ethyl)phenyl)biphenyl-4-sulfonamide]	–	–	1020	–
O=S(=O)(Nc1cccc(CCO)c1)c1ccc(-c2ccc(Br)cc2)cc1 [ABD630, reference compound]	–	–	–	T1/2 [1]: 43 min; Solubility [2]: 60 µg/mL (≈ 139 µM)
CC(=O)c1cccc(NS(=O)(=O)c2ccc(-c3ccc(Cl)cc3Cl)cc2)c1 [ABD746, N-(3-Acetylphenyl)-2′,4′-dichlorobiphenyl-4-sulfonamide, reference compound]	11	8 (≈ 19 µM)	–	–
O=S(=O)(Nc1cccc(C2(O)CC2)c1)c1ccc(-c2ccc(Cl)cc2Cl)cc1 [ABD709, 2′,4′-Dichloro-N-(3-(1-hydroxycyclopropyl)phenyl)biphenyl-4-sulfonamide]	18	70 (≈ 161 µM)	380	–
CN(C)C(CO)c1cccc(NS(=O)(=O)c2ccc(-c3ccc(F)cc3F)cc2)c1 (stereo not shown) [ABD791, N-(3-(1-(Dimethylamino)-2-hydroxyethyl)phenyl)-2′,4′-difluorobiphenyl-4-sulfonamide]	27	3000 (≈ 6940 µM)	570	–
N[C@@H](CO)c1cccc(NS(=O)(=O)c2ccc(-c3ccc(F)cc3F)cc2)c1 [ABD854, (R)—N-(3-(1-Amino-2-hydroxyethyl)phenyl)-2′,4′-difluorobiphenyl-4-sulfonamide]	–	–	1350	–
CN(C)CC(O)c1cccc(NS(=O)(=O)c2ccc(-c3ccc(F)cc3F)cc2)c1 (stereo not shown) [ABD784, N-(3-(2-(Dimethylamino)-1-hydroxyethyl)phenyl)-2′,4′-difluorobiphenyl-4-sulfonamide]	–	–	1430	–
CC(N)(CO)c1cccc(NS(=O)(=O)c2ccc(-c3ccc(F)cc3F)cc2)c1 (stereo not shown) [ABD862, N-(3-(2-Amino-1-hydroxypropan-2-yl)phenyl)-2′,4′-difluorobiphenyl-4-sulfonamide]	–	–	2430	–
O=C(O)c1cccc(NS(=O)(=O)c2ccc(-c3ccc(Cl)cc3Cl)cc2)c1 [ABD612, 3-(2′,4′-Dichlorobiphenyl-4-ylsulfonamido)benzoic acid, reference compound]	–	130 (≈ 308 µM)	–	T1/2 [1]: Stable
O=S(=O)(Nc1cccc(CO)c1)c1ccc(-c2ccc(F)cc2F)cc1 [ABD456, 2′,4′-difluoro-biphenyl-4-sulfonic acid (3-hydroxymethyl-phenyl)-amide, reference compound]	–	–	250	solubility at 24 h [2]: 50 µg/mL (≈ 133 µM)
CC(C)(O)c1cccc(NS(=O)(=O)c2ccc(-c3ccc(Cl)cc3Cl)cc2)c1 [ABD707, 2′,4′-Dichloro-N-(3-(2-hydroxypropan-2-yl)phenyl)biphenyl-4-sulfonamide]	12	140 (≈ 321 µM)	90	–
O=S(=O)(Nc1cccc(C(O)C(F)(F)F)c1)c1ccc(-c2ccc(Cl)cc2Cl)cc1 (stereo not shown) [ABD766, 2′,4′-Dichloro-N-(3-(2,2,2-trifluoro-1-hydroxyethyl)phenyl)biphenyl-4-sulfonamide]	16	20 (≈ 42 µM)	710	–
O=S(=O)(Nc1cccc(CCO)c1)c1ccc(-c2ccc(F)cc2F)cc1 [ABD628, 2′,4′-difluoro-biphenyl-4-sulfonic acid [3-(2-hydroxy-ethyl)-phenyl]-amide, reference compound]	18	–	–	–
O=S(=O)(Nc1cccc(CO)c1)c1ccc(-c2ccc(Cl)cc2F)cc1 [ABD575, reference compound]	–	–	–	IC50 [3]: 400 nM; Solubility [2]: 70 µg/mL (≈ 179 µM)
O=S(=O)(Nc1cc(CO)ccc1O)c1ccc(-c2ccc(F)cc2F)cc1 [ABD585, reference compound]	–	–	–	Solubility [2]: 70 µg/mL (≈ 179 µM)
CN[C@H](CO)c1cccc(NS(=O)(=O)c2ccc(-c3ccc(F)cc3F)cc2)c1 [ABD811, (S)-2′,4′-Difluoro-N-(3-(2-hydroxy-1-(methylamino)ethyl)phenyl)biphenyl-4-sulfonamide]	–	–	350	–
